For the experiment, the target named is SARS-CoV-2 Papain like protease (PLpro) (Severe acute respiratory syndrome coronavirus 2 (2019-nCoV) (SARS-CoV-2), UniProt P0DTD1). Kind of experiment: Papain Like Protease (PLpro) biochemical assay with profluorogenic substrate Z-RLRGG-AMC. The settings on record: SARS-CoV-2 PLpro 6.25 nM, 25 μM Z-RLRGG-AMC substrate, 60 minute reaction; read-out: IC50.
`Cc1cc(CC(=O)Nc2cscn2)ccc1C(=O)N[C@H](C)c1cc(-c2cnn(C)c2)nc2ccccc12` [Example 236, (R)-2-methyl-N-(1-(2-(1-methyl-1H-pyrazol-4-yl)quinolin-4-yl)ethyl)-4-(2-oxo-2-(thiazol-4-ylamino)ethyl)benzamide]: the IC50 (commonly the concentration that inhibits the measured activity by half) is 3 nM.
For `CNCc1ccc(C)c(C(=O)N[C@H](C)c2cc(-c3cc(C(=O)OC)c[nH]3)nc3ccccc23)c1` [Example 57, methyl (R)-5-(4-(1-(2-methyl-5-((methylamino)methyl)benzamido)ethyl)quinolin-2-yl)-1H-pyrrole-3-carboxylate] the value was 13 nM; for `Cc1ccc(NC(=O)[C@H]2CCCCN2)cc1C(=O)NC(C)c1cc(N)nc2ccccc12` (mixture of isomers) [Example 25, (R)—N-(3-(((RS)-1-(2-aminoquinolin-4-yl)ethyl)carbamoyl)-4-methylphenyl)piperidine-2-carboxamide], 100 nM; for `COC(=O)/C=C/C(=O)NNC(=O)CCc1ccccc1C(=O)NC(C)c1cc(-c2cnn(C)c2)cc2ccccc12` (stereo not drawn) [Example 64, methyl (E)-4-(2-(3-(2-((1-(3-(1-methyl-1H-pyrazol-4-yl)naphthalen-1-yl)ethyl)carbamoyl)phenyl)propanoyl)hydrazineyl)-4-oxobut-2-enoate], 5 nM.
For `COC(=O)c1cc(-c2cc([C@@H](C)NC(=O)c3cc(CN)ccc3C)c3ccccc3n2)n(C)c1` [Example 263, methyl(R)-5-(4-(1-(5-(aminomethyl)-2-methylbenzamido)ethyl)quinolin-2-yl)-1-methyl-1H-pyrrole-3-carboxylate] the value was 231 nM; for `Cc1ccccc1C(=O)NC(C)c1cc(NCC2CCS(=O)(=O)CC2)nc2ccccc12` (stereo not drawn) [Example 144, N-(1-(2-(((1,1-dioxidotetrahydro-2H-thiopyran-4-yl)methyl)-amino)quinolin-4-yl)ethyl)-2-methylbenzamide], 1110 nM.
Then `Cc1cc(CN(Cc2cscn2)S(C)(=O)=O)ccc1C(=O)N[C@H](C)c1cc(-c2cnn(C)c2)nc2ccccc12` [Example 268, (R)-2-methyl-N-(1-(2-(1-methyl-1H-pyrazol-4-yl)quinolin-4-yl)ethyl)-4-((N-(thiazol-4-ylmethyl)methylsulfonamido)methyl)benzamide], with 139 nM.
On to `Cc1cc(C2(NC(=O)c3cscn3)CC2)ccc1C(=O)N[C@H](C)c1cc(-c2cnn(C)c2)nc2ccccc12` [Example 212, (R)-N-(1-(3-methyl-4-((1-(2-(1-methyl-1H-pyrazol-4-yl)quinolin-4-yl)ethyl)carbamoyl)phenyl)cyclopropyl)thiazole-4-carboxamide], for which the IC50 amounted to 58 nM.
For `Cc1ccccc1C(=O)N[C@H](C)c1cc(N(C)C)nc2ccccc12` [Example 42, (R)-N-(1-(2-(dimethylamino)quinolin-4-yl)ethyl)-2-methylbenzamide] the value was 2170 nM.
Then `Cc1ccc(NC(=O)[C@H]2CCCCN2)cc1C(=O)N[C@H](C)c1cc(-c2cnn(C)c2)cc2ccccc12` (single isomer, unassigned) [Example 66], with 8 nM; and `Cc1cc(CC(=O)Nc2ncc[nH]2)ccc1C(=O)N[C@H](C)c1cc(-c2cnn(C)c2)nc2ccccc12` [Example 239, (R)-4-(2-((1H-imidazol-2-yl)amino)-2-oxoethyl)-2-methyl-N-(1-(2-(1-methyl-1H-pyrazol-4-yl)quinolin-4-yl)ethyl)benzamide], with 7 nM; and `Cc1cc(C(C)NC(=O)c2ncc[nH]2)ccc1C(=O)N[C@H](C)c1cc(-c2cnn(C)c2)nc2ccccc12` (stereo partly drawn) [Example 270, N-(1-(3-methyl-4-(((R)-1-(2-(1-methyl-1H-pyrazol-4-yl)quinolin-4-yl)ethyl)carbamoyl)phenyl)ethyl)-1H-imidazole-2-carboxamide], with 37 nM.

(Values after patent US20240245673A1, “Papain-like protease (PLpro) inhibitors” (Pfizer Inc., priority 2022, published 2024).)
